# Experimental data taken from patent US8524691B2, “Phosphonated rifamycins and uses thereof for the prevention and treatment of bone and joint infections” (The Medicines Company, priority 2008, dated 2013).
# Where “and” joins values, the source holds several entries; their conditions need not be identical. Equal entries are not always repeated. Where two headings read alike, the source gives them in different places.
# How the values were obtained:
# S. aureus ATCC 13709 [1] = experiment: microbe, parasite or virus in culture; format: cell-based; settings: for Antibacterial activity (in words, from Table 1): S. aureus MIC
# Method: (§1) Susceptibility of S. aureus strains to the known antibiotics and synthesized compounds was determined by following the guidelines set by NCCLS (M26-A). Compounds were diluted two-fold serially in DMSO and transferred to cation-adjusted Mueller Hinton broth (CAMHB; Becton Dickinson). 50 μL of compounds diluted in CAMHB was mixed with 100 μL of bacteria diluted in CAMHB in 96-well microtiter plates. The final concentration of micro-organisms in the assay was 5×10^5c.f.u. per mL and the final concentration of DMSO in the assay was 1.25%. Assays were set up in duplicate and incubated at 37° C. for 18 h. The lowest concentration of compound that inhibited visible growth was reported as the minimum inhibitory concentration (MIC).
# [2] = tested on: S. aureus ATCC 13709^A, Novobiocin and Rifampicin resistant variant; experiment: Antibacterial susceptibility (MIC), NCCLS broth microdilution; format: cell-based
# Method: as §1
# S. aureus ATCC 29213 = experiment: as above; format: cell-based
# Method: as §1
# S. aureus ATCC 13709 [3] = experiment: microbe, parasite or virus in culture; format: cell-based; settings: for Serum dependence of antibacterial activity (in words): MIC with versus without serum; for MIC: Staphylococcus aureus, ATCC13709, 18 h
# Method: as §1
# Susceptibility testing experiments were also carried out in the presence of serum. These experiments were carried out similar to the susceptibility testing with the following modifications. 75 μL of compounds diluted in CAMHB was mixed with 75 μL of bacteria diluted in 100% serum from any given source (commercial pooled mouse serum (MS) and human serum (HS), Equitech-Bio Inc.) or diluted in 8% purified human serum albumin (HSA) (Calbiochem). The final concentration of animal serum in the assay was 50% and the final concentration of purified human serum albumin in the assay was 4%; the concentrations of all other components were identical to those described for susceptibility testing.
# [4] = tested on: Novobiocin resistant mutant strain of S. aureus ATCC 13709; experiment: Prophylactic efficacy in rat model of S. aureus bone infection; format: in vivo; settings: tibia 24 h postinfection; for Measured bacterial titer, parent drug: rifabutin 20 mg/kg, listed as Parent drug
# Method: To determine the in vivo activity of bisphosphonated prodrugs of Rifamycin derived antibacterials in comparison to their non-bisphosphonated parents, compounds 18, 19, 48a, 59, 66, 89, 95, 102, 110, 142b and 164 and their parent drug rifabutin were used as prophylactic therapeutics in an animal model of infection. Specifically, a spontaneous Novobiocin resistant mutant strain of S. aureus ATCC 13709 (a clinical osteomyelitis isolate), was grown overnight at 37° C. in brain heart infusion broth (BHIB). After 16 h of growth, cells were subcultured into fresh BHIB and incubated for 4 to 5 h at 37° C. The cells were washed twice with phosphate-buffered saline (PBS) and resuspended in BHIB supplemented with 10% (vol./vol.) fetal bovine serum at a density of approximately 10^10 colony forming units (CFU)/ml (based upon turbidimetry). The suspension was aliquoted and a portion was used to check the CFU count. The culture was stored frozen (−80° C.) and was used without subculture. For use as an inoculum the culture was thawed, diluted in PBS and kept in an ice bath until it was used.
# Animals were infected as described by O'Reilly et al. (Antimicrobial Agents and Chemotherapy (1992), 36(12): 2693-97) to generate the bone infection. Female CD rats (age, 57 to 70 days; n=5/group; Charles River, St-Constant, Canada) were anaesthetized by isofluorane before and during the surgery. Following complete induction of anesthesia, the rat was placed ventral side up and hair was shaved from the surgical site. The skin over the leg was cleaned and disinfected (proviodine-ethanol 70%). A longitudinal incision below the knee joint was made in the sagital plane. The incision was made over the bone below the “knee joint” (tibia head or condyle) but not completely extending to the ankle. A high speed drill fitted with a 2 mm bulb bit was used to drill a hole into the medullar cavity of the tibia. Rats were injected intra-tibially with 0.05 ml 5% sodium morrhuate (sclerosing agent) and then with 0.05 ml of S. aureus suspension (ca. 2×10^7 CFU/rat). The hole was sealed by applying a small amount of dry dental cement which immediately absorbs fluids and adheres to the site. The wound was closed using 3 metal skin clips. Moxifloxacin (as a positive control) was injected once at 10 mg/kg intravenously 1 h postinfection in saline, while the Rifabutin derived prodrugs (prepared in 0.9% saline) were injected at the dose indicated in Table 3 as a single intravenous bolus at different time points prior to the infection.
# Infected rats were sacrificed by CO2 asphyxiation 24 h postinfection to monitor the bacterial CFU count. Infected tibiae were removed, dissected free of soft tissue, and weighed. The bones were ground, 50 mg of charcoal were added and the powder was resuspended in 5 ml 0.9% NaCl, serially diluted and processed for quantitative cultures. Treatment efficacy was measured in terms of Log viable bacteria (Log CFU per gram of bone). […] The limit of detection is 2 Log CFU. Statistical comparisons of viable bacterial counts for the different treated and untreated groups were performed with the Dunnett's multiple-comparison test. Differences were considered significant when the P value was <0.05 when comparing treated infected animals to the untreated infected ones. The doses used, the amount of time separating the treatment from the time of infection and the treatment outcomes are shown in Table 3.
compound,measurement,setting,value
CO[C@H]1/C=C/O[C@@]2(C)Oc3c(C)c(O)c4c(c3C2=O)C2=NC3(CCN(CC(C)C)CC3)NC2=C(NC(=O)/C(C)=C\C=C\[C@H](C)[C@H](OC(=O)CN(C)C(=O)CNC(=O)[C@@H](Cc2ccccc2)NC(=O)CNC(=O)CCC(P(=O)(O)O)P(=O)(O)O)[C@@H](C)[C@@H](O)[C@@H](C)[C@H](OC(C)=O)[C@@H]1C)C4=O.N.N [Compound 79a],"Minimum inhibitory concentration, S. aureus ATCC 13709","S. aureus ATCC 13709 [1]; CAMHB, 37° C., 18 h",16 µg/mL
same,"Minimum inhibitory concentration, S. aureus ATCC 13709^A",[2],>128 µg/mL
same,"Minimum inhibitory concentration, S. aureus ATCC 29213","S. aureus ATCC 29213; CAMHB, 37° C., 18 h",16 µg/mL
same,"Minimum inhibitory concentration, ATCC 13709 + 50% Human Serum",S. aureus ATCC 13709 [3],>128 µg/mL
same,"Minimum inhibitory concentration, ATCC 13709 + 50% Mouse Serum",S. aureus ATCC 13709 [3],>128 µg/mL
same,"Minimum inhibitory concentration, ATCC 13709 + 50% Rat Serum",S. aureus ATCC 13709 [3]; 50% Rat Serum,64 µg/mL
CCC(=O)Oc1ccc(P(=O)(O)CP(=O)(O)O)cc1C(C)(C)CC(=O)N[C@@H](Cc1ccccc1)C(=O)N(C)CC(=O)O[C@@H]1[C@@H](C)[C@@H](O)[C@@H](C)[C@H](OC(C)=O)[C@H](C)[C@@H](OC)/C=C/O[C@@]2(C)Oc3c(C)c(O)c4c(c3C2=O)C2=NC3(CCN(CC(C)C)CC3)NC2=C(NC(=O)/C(C)=C\C=C\[C@@H]1C)C4=O.CCN(CC)CC.CCN(CC)CC [Compound 128],"Minimum inhibitory concentration, S. aureus ATCC 13709",S. aureus ATCC 13709 [1],>128 µg/mL
same,"Antibacterial activity (in words, from Table 1)",S. aureus ATCC 13709 [1],near complete loss of activity
same,"Minimum inhibitory concentration, S. aureus ATCC 13709^A",[2],>128 µg/mL
same,"Minimum inhibitory concentration, S. aureus ATCC 29213",S. aureus ATCC 29213,>128 µg/mL
same,"Minimum inhibitory concentration, ATCC 13709 + 50% Human Serum",S. aureus ATCC 13709 [3],>128 µg/mL
same,"Minimum inhibitory concentration, ATCC 13709 + 50% Mouse Serum",S. aureus ATCC 13709 [3],>128 µg/mL
same,"Minimum inhibitory concentration, ATCC 13709 + 50% Rat Serum",S. aureus ATCC 13709 [3],>128 µg/mL
CCCC(=O)OCCN(CCC(P(=O)(O)O)P(=O)(O)O)CC(=O)O[C@@H]1[C@@H](C)[C@@H](O)[C@@H](C)[C@H](OC(C)=O)[C@H](C)[C@@H](OC)/C=C/O[C@@]2(C)Oc3c(C)c(O)c4c(c3C2=O)C2=NC3(CCN(CC(C)C)CC3)NC2=C(NC(=O)/C(C)=C\C=C\[C@@H]1C)C4=O [Compound 52],"Minimum inhibitory concentration, S. aureus ATCC 13709","S. aureus ATCC 13709 [1]; CAMHB, 37° C., 18 h",4 µg/mL
same,"Minimum inhibitory concentration, S. aureus ATCC 13709^A",[2],>128 µg/mL
same,"Minimum inhibitory concentration, S. aureus ATCC 29213","S. aureus ATCC 29213; CAMHB, 37° C., 18 h",8 µg/mL
same,"Minimum inhibitory concentration, ATCC 13709 + 50% Human Serum",S. aureus ATCC 13709 [3]; 50% Human Serum,16 µg/mL
same,"Minimum inhibitory concentration, ATCC 13709 + 50% Mouse Serum",S. aureus ATCC 13709 [3]; 50% Mouse Serum,2 µg/mL
same,"Minimum inhibitory concentration, ATCC 13709 + 50% Rat Serum",S. aureus ATCC 13709 [3]; 50% Rat Serum,0.5 µg/mL
same,Serum dependence of antibacterial activity (in words),S. aureus ATCC 13709 [3],significant increase in antibacterial activity in serum
CO[C@H]1/C=C/O[C@@]2(C)Oc3c(C)c(O)c4c(c3C2=O)C2=NC3(CCN(CC(C)C)CC3)NC2=C(NC(=O)/C(C)=C\C=C\[C@H](C)[C@H](OC(=O)CN(C)C(=O)NC(P(=O)(O)O)P(=O)(O)O)[C@@H](C)[C@@H](O)[C@@H](C)[C@H](OC(C)=O)[C@@H]1C)C4=O [Compound 140],"Minimum inhibitory concentration, S. aureus ATCC 13709","S. aureus ATCC 13709 [1]; CAMHB, 37° C., 18 h",16 µg/mL
same,"Minimum inhibitory concentration, S. aureus ATCC 13709^A",[2],>128 µg/mL
same,"Minimum inhibitory concentration, S. aureus ATCC 29213","S. aureus ATCC 29213; CAMHB, 37° C., 18 h",16 µg/mL
same,"Minimum inhibitory concentration, ATCC 13709 + 50% Human Serum",S. aureus ATCC 13709 [3]; 50% Human Serum,128 µg/mL
same,"Minimum inhibitory concentration, ATCC 13709 + 50% Mouse Serum",S. aureus ATCC 13709 [3]; 50% Mouse Serum,32 µg/mL
same,"Minimum inhibitory concentration, ATCC 13709 + 50% Rat Serum",S. aureus ATCC 13709 [3]; 50% Rat Serum,4 µg/mL
same,Serum dependence of antibacterial activity (in words),S. aureus ATCC 13709 [3],weak antibacterial activity does not show a serum dependence
CCC(=O)Oc1cc(C)c(OCCCCC(P(=O)(O)O)P(=O)(O)O)c(C)c1CCC(=O)N[C@@H](Cc1ccccc1)C(=O)N(C)CC(=O)O[C@@H]1[C@@H](C)[C@@H](O)[C@@H](C)[C@H](OC(C)=O)[C@H](C)[C@@H](OC)/C=C/O[C@@]2(C)Oc3c(C)c(O)c4c(c3C2=O)C2=NC3(CCN(CC(C)C)CC3)NC2=C(NC(=O)/C(C)=C\C=C\[C@@H]1C)C4=O.N.N [Compound 138],"Minimum inhibitory concentration, S. aureus ATCC 13709",S. aureus ATCC 13709 [1],>128 µg/mL
same,"Antibacterial activity (in words, from Table 1)",S. aureus ATCC 13709 [1],near complete loss of activity
same,"Minimum inhibitory concentration, S. aureus ATCC 13709^A",[2],>128 µg/mL
same,"Minimum inhibitory concentration, S. aureus ATCC 29213",S. aureus ATCC 29213,>128 µg/mL
same,"Minimum inhibitory concentration, ATCC 13709 + 50% Human Serum",S. aureus ATCC 13709 [3],>128 µg/mL
same,"Minimum inhibitory concentration, ATCC 13709 + 50% Mouse Serum",S. aureus ATCC 13709 [3],>128 µg/mL
same,"Minimum inhibitory concentration, ATCC 13709 + 50% Rat Serum",S. aureus ATCC 13709 [3],>128 µg/mL
"COc1c(N2C[C@@H]3CCCN[C@@H]3C2)c(F)cc2c(=O)c(C(=O)O)cn(C3CC3)c12 [Moxifloxacin, reference compound]","Measured bacterial titer, positive control","[4]; Moxifloxacin 10 mg/kg intravenously once 1 h postinfection, listed as Positive control",2.62 ± 0.37 Log CFU/g of bone and 3.22 ± 0.65 Log CFU/g of bone and 2.27 ± 0.21 Log CFU/g of bone and 2.63 ± 0.65 Log CFU/g of bone and 2.06 ± 0.10 Log CFU/g of bone and 2.95 ± 1.07 Log CFU/g of bone and 2.2 ± 0.28 Log CFU/g of bone and 3.01 ± 0.74 Log CFU/g of bone
"CO[C@H]1/C=C/O[C@@]2(C)Oc3c(C)c(O)c4c(c3C2=O)C2=NC3(CCN(CC(C)C)CC3)NC2=C(NC(=O)/C(C)=C\C=C\[C@H](C)[C@H](O)[C@@H](C)[C@@H](O)[C@@H](C)[C@H](OC(C)=O)[C@@H]1C)C4=O [Rifabutin, reference compound]","Measured bacterial titer, parent drug",[4]; 1 day prior to infection,2.03 ± 0.07 Log CFU/g of bone and 2.09 ± 0.06 Log CFU/g of bone and 2.03 ± 0.09 Log CFU/g of bone and 2.07 ± 0.09 Log CFU/g of bone and 2.35 ± 1.12 Log CFU/g of bone
same,"Measured bacterial titer, parent drug",[4]; 5 days prior to infection,2.75 ± 0.94 Log CFU/g of bone and 4.27 ± 1.91 Log CFU/g of bone and 4.34 ± 0.79 Log CFU/g of bone and 4.71 ± 1.05 Log CFU/g of bone
same,MIC,"S. aureus ATCC 13709 [1]; Staphylococcus aureus, ATCC13709, CAMHB, 37° C., 18 h, read-out: Minimum inhibitory concentration, S. aureus ATCC 13709",0.0312 µg/mL
same,MIC,"S. aureus ATCC 29213; Staphylococcus aureus, ATCC29213, CAMHB, 37° C., 18 h, read-out: Minimum inhibitory concentration, S. aureus ATCC 29213",0.0156 µg/mL
same,MIC,"S. aureus ATCC 13709 [3]; read-out: Minimum inhibitory concentration, ATCC 13709 + 50% Human Serum",0.0312 µg/mL
same,MIC,"S. aureus ATCC 13709 [3]; read-out: Minimum inhibitory concentration, ATCC 13709 + 50% Mouse Serum",0.0625 µg/mL
same,MIC,"S. aureus ATCC 13709 [3]; read-out: Minimum inhibitory concentration, ATCC 13709 + 50% Rat Serum",0.0312 µg/mL
